Measurements as given in ChEMBL document CHEMBL4334544, “BRM Targeting Compounds for the Potential Treatment of Cancer” (ACS Med Chem Lett, 2020).

Experiments:
[1] = molecular target: T1, Protein cereblon/SWI/SNF-related matrix-associated actin-dependent regulator of chromatin subfamily A member 2 (Homo sapiens, UniProt P51531+Q96SW2); assay: Protac activity at E3 ubiquitin ligase/BRM in human SW1573 cells assessed as E3 ubiquitin ligase-mediated BRM degradation at 0.3 to 10 uM incubated for 18 to 20 hrs by Western blot analysis relative to control; type: cell-based
[2] = molecular target: T2, von Hippel-Lindau disease tumor suppressor/SWI/SNF-related matrix-associated actin-dependent regulator of chromatin subfamily A member 4 (Homo sapiens, UniProt P51532+P40337); assay: Protac activity at E3 ubiquitin ligase/BRG1 (unknown origin) assessed as E3 ubiquitin ligase mediated BRG1 degradation
Target sequence in this assay (P51532 whole entry): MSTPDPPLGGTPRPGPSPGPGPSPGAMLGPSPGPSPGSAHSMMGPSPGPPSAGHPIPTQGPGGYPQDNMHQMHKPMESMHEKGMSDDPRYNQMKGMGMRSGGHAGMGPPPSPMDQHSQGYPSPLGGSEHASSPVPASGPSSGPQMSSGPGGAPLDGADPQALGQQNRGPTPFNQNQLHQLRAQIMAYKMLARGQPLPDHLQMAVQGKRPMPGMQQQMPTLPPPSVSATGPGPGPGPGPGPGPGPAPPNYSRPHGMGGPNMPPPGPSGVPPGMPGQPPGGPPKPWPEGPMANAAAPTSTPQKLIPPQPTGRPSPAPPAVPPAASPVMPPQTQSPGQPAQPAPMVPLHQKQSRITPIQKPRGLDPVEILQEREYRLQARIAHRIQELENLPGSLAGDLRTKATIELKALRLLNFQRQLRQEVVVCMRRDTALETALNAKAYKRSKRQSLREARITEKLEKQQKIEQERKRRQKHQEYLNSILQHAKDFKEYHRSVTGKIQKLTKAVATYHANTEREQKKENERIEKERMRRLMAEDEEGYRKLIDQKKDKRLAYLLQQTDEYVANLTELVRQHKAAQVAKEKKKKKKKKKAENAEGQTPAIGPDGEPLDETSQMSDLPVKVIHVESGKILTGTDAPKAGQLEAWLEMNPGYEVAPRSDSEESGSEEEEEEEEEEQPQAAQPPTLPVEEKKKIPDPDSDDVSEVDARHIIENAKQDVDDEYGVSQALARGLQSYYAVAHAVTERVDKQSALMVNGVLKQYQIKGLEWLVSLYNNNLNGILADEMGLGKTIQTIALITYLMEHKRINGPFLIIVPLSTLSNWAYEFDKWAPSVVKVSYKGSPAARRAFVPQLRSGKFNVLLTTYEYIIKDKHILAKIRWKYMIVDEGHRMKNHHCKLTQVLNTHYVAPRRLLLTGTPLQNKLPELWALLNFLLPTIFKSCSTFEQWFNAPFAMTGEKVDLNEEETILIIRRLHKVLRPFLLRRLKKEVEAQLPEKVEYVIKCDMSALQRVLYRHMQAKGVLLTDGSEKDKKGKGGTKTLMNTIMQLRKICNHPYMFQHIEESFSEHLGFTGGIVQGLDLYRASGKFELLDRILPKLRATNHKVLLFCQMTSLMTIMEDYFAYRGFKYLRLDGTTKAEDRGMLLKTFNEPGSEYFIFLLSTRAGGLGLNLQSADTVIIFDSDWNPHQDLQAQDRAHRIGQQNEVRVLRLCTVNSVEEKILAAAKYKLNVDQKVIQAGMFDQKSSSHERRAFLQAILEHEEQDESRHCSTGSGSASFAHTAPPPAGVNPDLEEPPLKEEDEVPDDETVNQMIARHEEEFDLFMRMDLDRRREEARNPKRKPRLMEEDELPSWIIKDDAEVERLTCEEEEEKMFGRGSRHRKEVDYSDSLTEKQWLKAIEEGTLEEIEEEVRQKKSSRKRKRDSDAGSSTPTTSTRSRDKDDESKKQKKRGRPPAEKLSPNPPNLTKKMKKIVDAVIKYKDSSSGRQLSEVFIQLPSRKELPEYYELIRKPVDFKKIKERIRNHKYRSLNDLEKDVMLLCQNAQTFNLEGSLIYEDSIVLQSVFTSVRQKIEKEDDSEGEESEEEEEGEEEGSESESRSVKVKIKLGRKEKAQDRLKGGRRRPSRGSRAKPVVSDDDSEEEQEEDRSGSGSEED
Target sequence in this assay (P40337 whole entry): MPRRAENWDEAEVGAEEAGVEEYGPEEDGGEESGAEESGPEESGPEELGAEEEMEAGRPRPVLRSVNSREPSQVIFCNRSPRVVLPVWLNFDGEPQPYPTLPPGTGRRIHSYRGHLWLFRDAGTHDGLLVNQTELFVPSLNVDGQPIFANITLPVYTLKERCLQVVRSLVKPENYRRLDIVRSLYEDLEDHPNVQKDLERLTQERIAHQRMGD

[3] = molecular target: T2, von Hippel-Lindau disease tumor suppressor/SWI/SNF-related matrix-associated actin-dependent regulator of chromatin subfamily A member 4; assay: Protac activity at E3 ubiquitin ligase/BRG1 (unknown origin) assessed as E3 ubiquitin ligase mediated BRG1 degradation at 0.3 to 10 uM relative to control
Target sequence in this assay (P40337 whole entry, looked up): as the sequence (P40337 whole entry) above
Target sequence in this assay (P51532 whole entry, looked up): as the sequence (P51532 whole entry) above

[4] = molecular target: T1, Protein cereblon/SWI/SNF-related matrix-associated actin-dependent regulator of chromatin subfamily A member 2; assay: Protac activity at E3 ubiquitin ligase/BRM in human SW1573 cells assessed as E3 ubiquitin ligase-mediated BRM degradation incubated for 18 to 20 hrs by Western blot analysis; type: cell-based

T1 sequence (P51531 whole entry): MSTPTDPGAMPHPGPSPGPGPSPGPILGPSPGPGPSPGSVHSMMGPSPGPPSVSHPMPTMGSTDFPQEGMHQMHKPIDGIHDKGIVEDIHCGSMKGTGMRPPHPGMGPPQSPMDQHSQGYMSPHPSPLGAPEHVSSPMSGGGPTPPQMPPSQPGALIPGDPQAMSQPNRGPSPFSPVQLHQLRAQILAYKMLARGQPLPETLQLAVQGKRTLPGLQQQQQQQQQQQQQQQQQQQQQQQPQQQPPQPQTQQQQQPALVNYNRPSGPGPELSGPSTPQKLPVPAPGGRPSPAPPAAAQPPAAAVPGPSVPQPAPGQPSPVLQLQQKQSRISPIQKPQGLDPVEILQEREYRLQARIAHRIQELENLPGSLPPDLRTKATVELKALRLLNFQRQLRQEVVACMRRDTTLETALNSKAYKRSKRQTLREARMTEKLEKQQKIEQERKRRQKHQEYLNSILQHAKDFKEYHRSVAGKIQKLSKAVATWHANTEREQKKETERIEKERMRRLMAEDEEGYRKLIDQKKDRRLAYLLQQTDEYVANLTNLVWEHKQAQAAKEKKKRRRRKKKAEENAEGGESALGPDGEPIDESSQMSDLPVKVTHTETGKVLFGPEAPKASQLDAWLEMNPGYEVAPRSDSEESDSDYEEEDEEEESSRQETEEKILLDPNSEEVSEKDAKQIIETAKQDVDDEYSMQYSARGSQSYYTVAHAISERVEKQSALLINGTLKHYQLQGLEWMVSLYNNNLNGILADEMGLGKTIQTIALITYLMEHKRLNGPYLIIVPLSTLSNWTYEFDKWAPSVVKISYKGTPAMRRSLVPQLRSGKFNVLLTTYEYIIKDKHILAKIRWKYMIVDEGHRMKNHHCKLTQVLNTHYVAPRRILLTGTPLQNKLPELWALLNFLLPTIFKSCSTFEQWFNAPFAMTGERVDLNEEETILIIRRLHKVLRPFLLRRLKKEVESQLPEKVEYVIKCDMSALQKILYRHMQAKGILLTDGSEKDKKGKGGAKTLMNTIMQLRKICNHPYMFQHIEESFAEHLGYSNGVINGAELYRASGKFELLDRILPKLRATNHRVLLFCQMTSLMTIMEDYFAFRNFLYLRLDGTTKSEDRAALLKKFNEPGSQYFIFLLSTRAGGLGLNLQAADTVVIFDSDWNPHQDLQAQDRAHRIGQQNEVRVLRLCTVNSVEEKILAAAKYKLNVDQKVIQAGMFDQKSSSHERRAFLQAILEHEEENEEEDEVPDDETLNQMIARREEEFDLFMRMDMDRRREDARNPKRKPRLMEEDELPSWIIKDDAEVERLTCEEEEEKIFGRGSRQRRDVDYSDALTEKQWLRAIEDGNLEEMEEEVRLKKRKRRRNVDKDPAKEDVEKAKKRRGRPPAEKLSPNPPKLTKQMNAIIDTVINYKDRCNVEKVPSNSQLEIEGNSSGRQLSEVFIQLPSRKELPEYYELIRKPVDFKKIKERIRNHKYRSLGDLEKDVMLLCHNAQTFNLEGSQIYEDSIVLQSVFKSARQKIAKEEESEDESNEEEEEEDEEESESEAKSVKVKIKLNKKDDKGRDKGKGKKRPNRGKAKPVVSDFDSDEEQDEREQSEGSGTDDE
T1 sequence (Q96SW2 whole entry): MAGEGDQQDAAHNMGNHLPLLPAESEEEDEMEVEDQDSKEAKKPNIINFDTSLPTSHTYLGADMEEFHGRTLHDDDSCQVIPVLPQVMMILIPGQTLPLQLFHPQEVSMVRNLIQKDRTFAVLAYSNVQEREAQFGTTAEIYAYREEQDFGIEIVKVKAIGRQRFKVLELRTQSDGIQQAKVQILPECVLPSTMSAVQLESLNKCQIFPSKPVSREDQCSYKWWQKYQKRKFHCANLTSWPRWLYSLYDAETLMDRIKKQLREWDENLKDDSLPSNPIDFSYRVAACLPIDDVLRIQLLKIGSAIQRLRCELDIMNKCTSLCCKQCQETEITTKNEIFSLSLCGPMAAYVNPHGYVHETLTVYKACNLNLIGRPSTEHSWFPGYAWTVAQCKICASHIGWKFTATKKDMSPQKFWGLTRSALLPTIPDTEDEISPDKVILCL

SMILES	%max [1]	DC50 [2]	%max [3]	DC50 [4]
Cc1ncsc1-c1ccc([C@H](C)NC(=O)[C@@H]2C[C@@H](O)CN2C(=O)[C@@H](c2cc(OC3CN(CCN4CCC(O[C@H]5C[C@H](Oc6cc(N7C8CCC7CN(c7cc(-c9ccccc9O)nnc7N)C8)ccn6)C5)CC4)C3)no2)C(C)C)cc1	> 75%	2.5 to 10 nM	> 75%	< 2.5 nM
Cc1ncsc1-c1ccc([C@H](C)NC(=O)[C@@H]2C[C@@H](O)CN2C(=O)[C@@H](c2cc(OCCCCN3CCN(CCCCOc4cc(N5C6CCC5CN(c5cc(-c7ccccc7O)nnc5N)C6)ccn4)CC3)no2)C(C)C)cc1	> 75%	< 2.5 nM	> 75%	< 2.5 nM
Cc1ncsc1-c1ccc([C@H](C)NC(=O)[C@@H]2C[C@@H](O)CN2C(=O)[C@@H](c2cc(OCCN3CCC(OC4CN(c5cc(N6C7CCC6CN(c6cc(-c8ccccc8O)nnc6N)C7)ccn5)C4)CC3)no2)C(C)C)cc1	> 75%	2.5 to 10 nM	> 75%	< 2.5 nM
Cc1ncsc1-c1ccc([C@H](C)NC(=O)[C@@H]2C[C@@H](O)CN2C(=O)[C@@H](c2cc(C#CCN3CCC(O[C@H]4C[C@H](Oc5cc(N6C7CCC6CN(c6cc(-c8ccccc8O)nnc6N)C7)ccn5)C4)CC3)no2)C(C)C)cc1	> 75%	2.5 to 10 nM	> 75%	< 2.5 nM
Cc1ncsc1-c1ccc([C@H](C)NC(=O)[C@@H]2C[C@@H](O)CN2C(=O)[C@@H](c2cc(N3CCC(O[C@H]4C[C@H](Oc5cc(N6C7CCC6CN(c6cc(-c8ccccc8O)nnc6N)C7)ccn5)C4)CC3)no2)C(C)C)cc1	> 75%	< 2.5 nM	> 75%	< 2.5 nM
Cc1ncsc1-c1ccc([C@H](C)NC(=O)[C@@H]2C[C@@H](O)CN2C(=O)[C@@H](c2cc(OCCOCCOc3cc(N4C5CCC4CN(c4cc(-c6ccccc6O)nnc4N)C5)ccn3)no2)C(C)C)cc1	> 75%	< 2.5 nM	> 75%	< 2.5 nM
